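Assay format: 96-well plates, 48-hour exposure. Here, GI50 denotes the concentration required for 50% inhibition of growth.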 Activity calls are given as the source filed them. No stated cut-off is given here; in the data, active = GI50 up to about 1.1 µM and inactive = higher.
What was measured:
Test in all cases: NCI-60 cell line screen, 48 h
[1] = system: COLO 205
[2] = system: EKVX
[3] = system: TK-10
[4] = system: LOX IMVI
[5] = system: SK-MEL-2
[6] = system: HOP-92
[7] = system: SR
[8] = system: KM12
[9] = system: M14
[10] = system: RPMI-8226
[11] = system: RXF 393
[12] = system: OVCAR-8
[13] = system: K562
[14] = system: SN12C
[15] = system: ACHN
[16] = system: UO-31
[17] = system: SF-268
[18] = system: NCI/ADR-RES
[19] = system: PC-3

Measured: GI50

O=C(O)/C=C/c1ccncc1
inactive: [1] > 100 µM | [2] > 100 µM | [3] > 100 µM | [4] > 100 µM | [5] > 100 µM | [6] > 100 µM | [7] > 100 µM | [8] > 100 µM | [9] > 100 µM | [10] > 100 µM | [11] > 100 µM | [12] > 100 µM | [13] > 100 µM | [14] > 100 µM | [15] > 100 µM | [16] > 100 µM | [17] > 100 µM

O=C(N[C@@H](c1ccccc1)[C@@H](O)C(=O)OCc1ccc2c(c1)OCO2)c1ccccc1
inactive: [1] > 100 µM | [2] > 100 µM | [4] > 100 µM | [5] > 100 µM | [6] > 86.7 µM | [18] > 42.1 µM | [8] > 100 µM | [10] > 100 µM | [11] 52.8 µM | [12] > 100 µM | [13] > 100 µM | [14] > 100 µM | [16] > 91.6 µM | [17] > 100 µM

CC1C(=O)CC(c2cccs2)N(N=O)C1c1cccs1 (configuration not stated)
inactive: [1] 53.1 µM | [2] 57.1 µM | [4] 56.5 µM | [5] 49.9 µM | [6] 23.7 µM | [18] 26.6 µM | [8] 54.1 µM | [10] 23.7 µM | [11] 24.9 µM | [12] > 42 µM | [13] 15.8 µM | [14] 69.8 µM | [16] 43.6 µM | [17] 97.3 µM

CS/C(=N\C(=S)N(C)C)N(c1ccccc1)c1nc(N(C)C)s[s+]1
inactive: [1] 2 µM | [2] 16 µM | [3] 40.3 µM | [4] 5.74 µM | [5] 5.52 µM | [6] 20.9 µM | [7] 3.98 µM | [8] 3.65 µM | [9] 4.83 µM | [10] 1.84 µM | [11] 14 µM | [12] 10.4 µM | [13] 2.56 µM | [14] 13.1 µM | [15] 23.8 µM | [16] 27.9 µM | [17] 12.1 µM

COC(=O)/C(=C\C(=O)c1ccc(Br)cc1)NN=C(c1ccccc1)c1ccccc1
inactive: [1] > 10 µM | [2] > 10 µM | [3] > 10 µM | [4] > 10 µM | [6] > 10 µM | [7] > 10 µM | [8] > 10 µM | [19] > 10 µM | [9] > 10 µM | [10] > 10 µM | [11] > 10 µM | [12] > 10 µM | [13] > 10 µM | [14] > 10 µM | [17] > 10 µM

O=C(NNc1ccc([N+](=O)[O-])cc1[N+](=O)[O-])/C(O)=C\C(=O)c1ccccc1
inactive: [1] 18.4 µM | [2] 25.2 µM | [3] 22.4 µM | [4] 24.5 µM | [5] 27.1 µM | [18] 16.3 µM | [7] 19.9 µM | [8] 16.3 µM | [19] 20.3 µM | [9] 14.3 µM | [10] 15.3 µM | [11] 16.3 µM | [12] 18.7 µM | [13] 25.1 µM | [14] 16.5 µM | [15] 23.1 µM | [16] 14.3 µM | [17] 17.7 µM

COc1cc(C2c3cc4c(cc3OC(NCCO)C2C)OCO4)cc(OC)c1O (configuration not stated)
inactive: [1] 21.2 µM | [3] 12.8 µM | [5] 4.79 µM | [6] 86.5 µM | [18] 4.58 µM | [7] 6.12 µM | [8] 6.78 µM | [19] 8.79 µM | [9] 9.55 µM | [10] 3.23 µM | [11] 20.4 µM | [12] 19 µM | [14] 4.6 µM | [16] 24.5 µM | [17] 39.6 µM

N#C/N=C(/N)NCO
inactive: [1] > 42.1 µM | [2] > 100 µM | [3] > 100 µM | [4] > 39.9 µM | [5] > 100 µM | [6] > 100 µM | [7] 9.29 µM | [8] > 40 µM | [9] > 100 µM | [10] > 48.2 µM | [11] 16.5 µM | [12] > 100 µM | [13] > 76 µM | [14] > 100 µM | [15] > 100 µM | [16] > 100 µM | [17] 63.5 µM

COC(=O)/C(=N/O)C(C(=O)OC)C(=O)C(=O)Nc1c(Cl)cc(C)cc1S(=O)(=O)O (configuration not stated)
inactive: [1] > 100 µM | [2] > 100 µM | [3] > 100 µM | [4] 41 µM | [5] > 100 µM | [6] > 100 µM | [7] 20.1 µM | [8] > 100 µM | [9] > 100 µM | [10] 23.5 µM | [11] > 100 µM | [12] > 100 µM | [13] 67 µM | [14] > 100 µM | [15] > 100 µM | [16] > 100 µM | [17] > 100 µM

CCN(CC)CCCNc1nc(=O)[nH]c(C)c1C(=O)Nc1cccc2cc3ccccc3cc12
inactive: [1] > 100 µM | [2] > 100 µM | [3] > 100 µM | [4] > 100 µM | [5] > 100 µM | [6] 62.2 µM | [18] > 100 µM | [8] 45.9 µM | [19] > 100 µM | [9] > 100 µM | [10] > 100 µM | [11] 78.7 µM | [12] > 100 µM | [13] > 100 µM | [14] > 100 µM | [15] > 100 µM | [16] > 100 µM

Cc1ccc(C(=O)Nc2ccc(S(=O)(=O)O)c3cc(S(=O)(=O)O)cc(S(=O)(=O)O)c23)cc1NC(=S)Nc1cc(C(=O)Nc2ccc(S(=O)(=O)O)c3cc(S(=O)(=O)O)cc(S(=O)(=O)O)c23)ccc1C
inactive: [3] > 75 µM | [4] > 75 µM | [5] > 75 µM | [7] > 75 µM | [19] > 75 µM | [9] > 75 µM | [10] > 75 µM | [12] > 75 µM | [13] > 75 µM | [14] > 75 µM | [15] > 75 µM | [16] > 75 µM | [17] > 75 µM

CCCCCCc1cn([C@H]2C[C@H](O)[C@@H](CO)O2)c(=O)[nH]c1=O
inactive: [2] > 100 µM | [4] > 100 µM | [5] > 100 µM | [6] > 100 µM | [18] > 100 µM | [8] > 100 µM | [10] > 100 µM | [11] > 100 µM | [12] > 100 µM | [13] > 100 µM | [14] > 100 µM | [16] > 100 µM | [17] > 100 µM
